{"source": "ChEMBL document CHEMBL1201862", "about": "“PubChem BioAssay data set” (2004)", "key": {"[1]": {"target": "Bifunctional protein GlmU (Mycobacterium tuberculosis, UniProt P9WMN3)", "sequence (P9WMN3 whole entry)": "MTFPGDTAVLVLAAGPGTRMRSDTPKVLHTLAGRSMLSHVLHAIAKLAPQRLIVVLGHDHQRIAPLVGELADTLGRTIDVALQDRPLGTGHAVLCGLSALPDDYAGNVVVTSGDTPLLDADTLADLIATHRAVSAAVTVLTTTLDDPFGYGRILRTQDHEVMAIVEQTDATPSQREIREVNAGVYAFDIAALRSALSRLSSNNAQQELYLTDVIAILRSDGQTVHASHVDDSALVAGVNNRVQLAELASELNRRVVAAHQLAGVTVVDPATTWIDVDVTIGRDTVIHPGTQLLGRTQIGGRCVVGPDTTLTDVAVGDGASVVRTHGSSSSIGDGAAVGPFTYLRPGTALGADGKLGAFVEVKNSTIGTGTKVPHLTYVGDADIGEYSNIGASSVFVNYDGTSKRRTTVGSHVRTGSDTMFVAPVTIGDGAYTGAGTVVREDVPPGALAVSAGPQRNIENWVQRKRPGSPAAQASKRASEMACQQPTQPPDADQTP", "assay": "Inhibitors of Mycobacterial Glucosamine-1-phosphate acetyl transferase (GlmU). Secondary screen.", "design": "species or system Mycobacterium tuberculosis H37Rv"}, "[2]": {"target": "Muscarinic acetylcholine receptor M1 (Rattus norvegicus, UniProt P08482)", "sequence (P08482 whole entry)": "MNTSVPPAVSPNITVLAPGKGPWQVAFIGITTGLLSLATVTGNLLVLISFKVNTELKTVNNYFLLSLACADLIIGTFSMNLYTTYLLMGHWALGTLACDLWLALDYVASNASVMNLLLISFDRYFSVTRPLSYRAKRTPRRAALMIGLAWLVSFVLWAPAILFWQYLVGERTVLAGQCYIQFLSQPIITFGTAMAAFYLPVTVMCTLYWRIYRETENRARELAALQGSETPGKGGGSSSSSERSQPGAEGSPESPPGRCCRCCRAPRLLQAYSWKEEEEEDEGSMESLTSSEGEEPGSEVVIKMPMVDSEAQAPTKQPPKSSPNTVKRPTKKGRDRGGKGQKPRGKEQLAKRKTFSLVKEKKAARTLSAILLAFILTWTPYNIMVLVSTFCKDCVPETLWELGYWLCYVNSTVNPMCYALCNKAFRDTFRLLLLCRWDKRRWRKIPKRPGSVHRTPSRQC", "assay": "concentration-dependent potentiation of ACh at M1 – cell-based, calcium mobilization, CHO-K1, ACh EC20, dose response (AID 2425)", "format": "functional"}, "[3]": {"assay": "Luminescence Cell-Based Dose Response to Identify Activators of 5'UTR Stem-Loop Driven Prion Protein mRNA Translation in H4-C Neuroglioblastoma Cells. [Related pubchem assays: 1829 (Project Summary), 1814 (Primary HTS)]", "format": "functional"}, "H4": {"system": "H4", "assay": "Luminescence Cell-Based Dose Response HTS to Identify Activators of 5'UTR Stem-Loop Driven Prion Protein mRNA Translation in H4 Neuroglioblastoma Cells. [Related pubchem assays: 1829 (Project Summary), 1814 (Primary HTS)]", "format": "functional", "details": "Homo sapiens"}, "[4]": {"target": "T1, Heat shock factor protein 1 (Mus musculus, UniProt P38532)", "T1 sequence (P38532 whole entry)": "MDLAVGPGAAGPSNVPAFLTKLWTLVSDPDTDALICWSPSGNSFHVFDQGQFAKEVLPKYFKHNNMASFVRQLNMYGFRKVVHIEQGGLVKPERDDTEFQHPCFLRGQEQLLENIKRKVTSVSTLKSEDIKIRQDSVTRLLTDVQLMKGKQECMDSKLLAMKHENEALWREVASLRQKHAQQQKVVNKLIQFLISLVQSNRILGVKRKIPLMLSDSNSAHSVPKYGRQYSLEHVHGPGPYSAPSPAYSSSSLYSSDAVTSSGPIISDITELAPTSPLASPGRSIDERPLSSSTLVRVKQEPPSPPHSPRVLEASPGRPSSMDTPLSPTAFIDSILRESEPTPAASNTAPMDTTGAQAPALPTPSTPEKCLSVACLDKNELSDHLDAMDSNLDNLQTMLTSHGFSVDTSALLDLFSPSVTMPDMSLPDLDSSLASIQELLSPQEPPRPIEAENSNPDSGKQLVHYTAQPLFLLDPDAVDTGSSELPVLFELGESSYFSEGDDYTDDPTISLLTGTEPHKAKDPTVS", "assay": "decrease of HSF1-responsive luciferase luminescence – cell-based, NIH3T3, dose retest, confirmation (AID 2382);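 note: NIH3T3 fibroblasts with HSF1-driven luciferase reporter stressed by proteasome inhibitor MG132; luminescence from HSF1-driven luciferase expression after 8 hours of MG132 stress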", "format": "functional"}, "[5]": {"assay": "Luminescence Cell-Based Dose Response to Identify Activators of Luciferase Translation or Activity in H4-C Neuroglioblastoma Cells. [Related pubchem assays: 1829 (Project Summary), 1814 (Primary HTS)]", "format": "functional"}, "Oxytocin receptor": {"target": "Oxytocin receptor (Homo sapiens, UniProt P30559)", "sequence (P30559 whole entry)": "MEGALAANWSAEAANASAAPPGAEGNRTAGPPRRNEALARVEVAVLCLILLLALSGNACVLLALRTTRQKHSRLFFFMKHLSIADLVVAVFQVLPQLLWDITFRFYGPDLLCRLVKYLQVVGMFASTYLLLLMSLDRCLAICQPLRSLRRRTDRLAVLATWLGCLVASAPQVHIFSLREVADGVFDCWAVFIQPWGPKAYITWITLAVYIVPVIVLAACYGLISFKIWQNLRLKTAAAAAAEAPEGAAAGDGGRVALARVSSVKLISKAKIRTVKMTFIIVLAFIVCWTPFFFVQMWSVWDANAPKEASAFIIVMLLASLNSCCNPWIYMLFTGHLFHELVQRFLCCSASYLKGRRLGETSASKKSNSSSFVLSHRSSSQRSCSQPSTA", "assay": "Counterscreen for vasopressin 1 receptor (V1R) agonists: Fluorescence-based cell-based high throughput dose response assay for agonists of the Oxytocin Receptor (OXTR). [Related pubchem assays: 2435 (Primary screen (OXTR agonists in singlicate)), 434964 (Confirmation screen (V1R agonists in triplicate)), 434969 (Counterscreen (OXTR agonists in …", "format": "functional"}, "Vasopressin V1a receptor": {"target": "Vasopressin V1a receptor (Homo sapiens, UniProt P37288)", "sequence (P37288 whole entry)": "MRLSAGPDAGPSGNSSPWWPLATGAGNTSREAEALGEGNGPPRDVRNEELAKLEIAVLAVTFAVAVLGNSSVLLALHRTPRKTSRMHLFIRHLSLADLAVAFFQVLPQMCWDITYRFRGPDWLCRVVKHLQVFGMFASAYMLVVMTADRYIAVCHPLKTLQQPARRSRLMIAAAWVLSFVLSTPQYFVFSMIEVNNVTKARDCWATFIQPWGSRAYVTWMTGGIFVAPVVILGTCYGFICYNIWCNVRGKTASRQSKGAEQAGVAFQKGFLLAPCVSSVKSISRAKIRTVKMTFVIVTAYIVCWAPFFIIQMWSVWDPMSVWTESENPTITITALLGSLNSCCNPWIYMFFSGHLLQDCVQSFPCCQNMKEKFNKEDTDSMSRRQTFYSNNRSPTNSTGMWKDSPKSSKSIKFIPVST", "assay": "Fluorescence-based cell-based high throughput dose response screening assay for agonists of the vasopressin 1 receptor (V1R).", "format": "functional"}, "[6]": {"assay": "Luminescence Cell-Based Dose Confirmation to Identify Activators of 5'UTR Stem-Loop Driven Alpha-Synuclein mRNA Translation in H4 Neuroglioblastoma Cells. [Related pubchem assays: 1829 (Project Summary), 1814 (Primary HTS)]", "format": "functional"}, "[7]": {"target": "E3 ubiquitin-protein ligase Mdm2 (Homo sapiens, UniProt Q00987)", "sequence (Q00987 whole entry)": "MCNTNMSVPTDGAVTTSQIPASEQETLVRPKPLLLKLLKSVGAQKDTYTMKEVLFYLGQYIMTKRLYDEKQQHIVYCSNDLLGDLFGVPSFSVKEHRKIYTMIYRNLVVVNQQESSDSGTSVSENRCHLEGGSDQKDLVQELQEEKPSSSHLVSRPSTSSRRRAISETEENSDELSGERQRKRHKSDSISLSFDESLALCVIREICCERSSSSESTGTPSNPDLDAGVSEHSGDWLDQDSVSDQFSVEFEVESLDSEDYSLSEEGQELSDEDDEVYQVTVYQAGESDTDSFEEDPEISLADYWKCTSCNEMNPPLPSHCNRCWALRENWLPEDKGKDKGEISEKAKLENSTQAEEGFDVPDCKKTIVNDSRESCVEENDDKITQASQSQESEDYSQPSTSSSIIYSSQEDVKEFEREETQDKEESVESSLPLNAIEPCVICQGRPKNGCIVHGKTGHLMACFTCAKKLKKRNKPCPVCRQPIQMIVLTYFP", "assay": "MDM2-luc reporter signal enhancers, multi-concentration potency testing, MDM2 ubiquitin-protein ligase inhibitor program, whole-cell format, luminescence detection, 384-well microplate (AID 1394);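 note: MDM2 E3 inhibitors raise luminescence so EC50 is for signal enhancement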", "format": "functional"}, "[8]": {"assay": "A High Throughput Confirmatory Assay used to Identify Novel Compounds that Inhibit Mycobacterium Tuberculosis in the absence of Glycerol.", "format": "functional"}, "Galanin receptor type 2": {"target": "Galanin receptor type 2 (Homo sapiens, UniProt O43603)", "sequence (O43603 whole entry)": "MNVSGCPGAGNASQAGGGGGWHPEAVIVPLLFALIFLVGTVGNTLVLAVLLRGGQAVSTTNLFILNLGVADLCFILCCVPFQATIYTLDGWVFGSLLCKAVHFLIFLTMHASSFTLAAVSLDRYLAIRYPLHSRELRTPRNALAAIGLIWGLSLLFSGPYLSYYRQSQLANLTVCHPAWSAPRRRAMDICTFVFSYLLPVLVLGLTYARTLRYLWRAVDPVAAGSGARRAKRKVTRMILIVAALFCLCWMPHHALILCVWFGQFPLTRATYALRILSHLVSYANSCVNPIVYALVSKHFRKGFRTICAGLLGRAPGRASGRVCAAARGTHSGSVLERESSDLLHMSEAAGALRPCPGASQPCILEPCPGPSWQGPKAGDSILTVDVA", "assay": "Dose Response cell-based high-throughput screening assay to identify antagonists of galanin receptor 2 (GALR2). [Related pubchem assays: 828, 866 ]", "format": "functional"}, "[9]": {"target": "Induced myeloid leukemia cell differentiation protein Mcl-1 (Homo sapiens, UniProt Q07820)", "sequence (Q07820 whole entry)": "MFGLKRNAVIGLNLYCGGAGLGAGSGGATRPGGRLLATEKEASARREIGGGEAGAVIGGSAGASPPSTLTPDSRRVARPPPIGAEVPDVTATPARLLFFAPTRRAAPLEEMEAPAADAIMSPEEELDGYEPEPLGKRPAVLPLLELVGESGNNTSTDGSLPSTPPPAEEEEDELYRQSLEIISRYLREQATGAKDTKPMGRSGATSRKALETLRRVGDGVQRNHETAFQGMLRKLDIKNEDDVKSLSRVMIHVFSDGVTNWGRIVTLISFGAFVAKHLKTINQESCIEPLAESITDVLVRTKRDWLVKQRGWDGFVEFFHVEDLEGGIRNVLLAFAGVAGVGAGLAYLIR", "format": "functional"}, "[10]": {"assay": "Plasmodium falciparum Dd2 Sybr green parasite growth Measured in Cell-Based and Microorganism Combination System Using Plate Reader - 2153-01_Inhibitor_Dose_DryPowder_Activity_Set10.", "format": "functional"}}, "note": "Calls of active or inactive are those of the source.", "data": [{"compound": "O=c1c(C(c2ccccn2)c2c(O)oc3ccccc3c2=O)c(O)oc2ccccc12", "values": [{"measurement": "IC50", "setting": "[1]", "value": "152 µM (active)"}]}, {"compound": "Cn1cc(-c2ccc(CN3C(=O)C(=O)c4cccc(F)c43)c(F)c2)cn1", "values": [{"measurement": "EC50", "setting": "[2]", "value": "2.32 µM (active)"}]}, {"compound": "CCN1C(=S)SC(=O)C1=C1C=C(C)N(Cc2ccco2)C(C)=C1", "values": [{"measurement": "EC50", "setting": "[3]", "value": "0.313 µM (active)"}, {"measurement": "EC50", "setting": "H4", "value": "< 0.1 µM (active)"}, {"measurement": "EC50", "setting": "[4]", "value": "> 195 µM (not active)"}, {"measurement": "EC50", "setting": "[5]", "value": "0.263 µM (active)"}, {"measurement": "EC50", "setting": "Oxytocin receptor", "value": "16.7 µM (not active)"}, {"measurement": "EC50", "setting": "Vasopressin V1a receptor", "value": "10.5 µM (not active)"}, {"measurement": "EC50", "setting": "[6]", "value": "0.287 µM (active)"}]}, {"compound": "O=C(CSc1nnc(-c2cccnc2)n1C1CCCCC1)NC1CCCCC1", "values": [{"measurement": "EC50", "setting": "[7]", "value": "0.04 µM (not active)"}]}, {"compound": "Cc1ccc(S(=O)(=O)NCc2ccc(C(=O)NCCCN3CCC(Cc4ccccc4)CC3)cc2)cc1", "values": [{"measurement": "IC50", "setting": "[8]", "value": "> 100 µM (active)"}]}, {"compound": "CCCOc1[nH]cnc2c3ccccc3nc1-2", "values": [{"measurement": "IC50", "setting": "Galanin receptor type 2", "value": "> 42 µM (not active)"}, {"measurement": "IC50", "setting": "[9]", "value": "19.6 µM (not active)"}]}, {"compound": "COc1ccc(-c2ccccc2[C@@H]2[C@H](C#N)N(C(=O)C3CCCC3)[C@H]2CO)cc1", "values": [{"measurement": "AC50", "setting": "[10]", "value": "19.1 µM (active)"}]}]}
